Reference: PMC12892976, “Alkylation-based optimization of antifungal FPPS inhibitors yields a potent, broad-spectrum lipophilic zoledronate derivative” (mBio, 2025)
Values after ≈ are worked out from the molar mass of the structure shown. Where two headings read alike, the source gives them in different places.

Columns and labels:
[1] = test system: Cryptococcus deuterogattii; test: checkerboard drug interaction (FICI, MICc);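 on all read-outs here: simplified diagonal checkerboard screen pairing antifungal drugs with FPPS inhibitors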; format: cell-based; details: C. deuterogattii; for INH FD (MIC-MICc fold decrease): fold decrease of inhibitor MIC
Experimental: (§1) Drug interactions between antifungals and FPPS inhibitors were investigated using a simplified checkerboard diagonal screening method ([45]). […] FICIs were determined according to the Loewe additivity model ([17]).

HEK-293T cells = test: MTT reduction cytotoxicity assay; format: cell-based; details: Homo sapiens, HEK-293T, 72 h, MTT, 72 h
Trichophyton rubrum = test: MIC/MFC broth microdilution (CLSI); details: Trichophyton rubrum
Experimental: (§2) Antifungal susceptibility was determined by broth microdilution according to the CLSI guidelines described in M27-Ed4 ([16]). […] MFC was determined by back-plating drug-treated cultures from MIC broths onto SDA plates. The MFC was defined as the lowest concentration from which no colonies could be cultured.

Aspergillus fumigatus [2] = test: MIC/MFC broth microdilution (CLSI); details: ATCC204305
Experimental: as §2

Candida glabrata = test: MIC/MFC broth microdilution (CLSI); details: Nakaseomyces glabratus, CBS138;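 further: broth microdilution following CLSI M27-Ed4, MFC taken as the lowest drug level yielding no growth once MIC wells were subcultured on SDA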
Experimental: as §2

[3] = test system: Cryptococcus deuterogattii; test: MIC/MFC broth microdilution (CLSI); details: Cryptococcus deuterogattii;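 further: broth microdilution per CLSI M27-Ed4. MFC is the lowest concentration yielding no colonies when MIC broths are subcultured onto SDA plates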
Experimental: as §2

Aspergillus flavus = test: checkerboard drug interaction (FICI, MICc);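 further: simplified diagonal checkerboard screen pairing azole antifungals with FPPS inhibitors, FICI calculated under the Loewe additivity model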; format: cell-based; parameters: INH MICc (KET:INH) / INH MICc (FLC:INH): unit not given beside the values; details: A. flavus
Cryptococcus neoformans [4] = test: MIC/MFC broth microdilution (CLSI); details: Cryptococcus neoformans;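 further: susceptibility testing followed the CLSI M27-Ed4 broth microdilution document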
Experimental: as §2

Candida albicans = test: MIC/MFC broth microdilution (CLSI); format: cell-based; details: Candida albicans SC5314
Experimental: as §2

Cryptococcus neoformans [5] = test: checkerboard drug interaction (FICI, MICc);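 on all read-outs here: antifungal plus FPPS inhibitor pairs tested against Cryptococcus neoformans by simplified diagonal checkerboard screening, FICI computed under the Loewe additivity model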; format: cell-based; details: C. neoformans; for INH FD (MIC-MICc fold decrease): fold decrease of inhibitor MIC
Experimental: as §1

Aspergillus fumigatus [6] = test: checkerboard drug interaction (FICI, MICc);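 on all read-outs here: simplified diagonal checkerboard screen pairing antifungals with FPPS inhibitors against Aspergillus fumigatus, with FICI calculated under the Loewe additivity model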; format: cell-based; details: A. fumigatus; for INH FD (MIC-MICc fold decrease): fold decrease of inhibitor MIC
Experimental: as §1

[7] = FLC:INH combination, MIC of the inhibitor in combination with FLC
[8] = FLC:INH combination, fold decrease of FLC MIC
[9] = ITR:INH combination, MIC of the inhibitor in combination with ITR
[10] = ITR:INH combination, fold decrease of ITR MIC
[11] = KET:INH combination, MIC of the inhibitor in combination with KET
[12] = KET:INH combination, fold decrease of KET MIC

SMILES: CCCCCCCCCCN1CCC[C@H]1C(=O)N[C@@H](CC(=O)OC)C(=O)OC [dmPLA10]
- FICI ([1]; FLC:INH combination): 0.38
- INH MICc [1, 7]: 8
- FLC FD (MIC-MICc fold decrease) [1, 8]: 8
- INH FD (MIC-MICc fold decrease) ([1]; FLC:INH combination): 4
- FICI ([1]; ITR:INH combination): 0.5
- INH MICc [1, 9]: 8
- ITR FD (MIC-MICc fold decrease) [1, 10]: 4
- INH FD (MIC-MICc fold decrease) ([1]; ITR:INH combination): 4
- FICI ([1]; KET:INH combination): 0.28
- INH MICc [1, 11]: 8
- KET FD (MIC-MICc fold decrease) [1, 12]: 32
- INH FD (MIC-MICc fold decrease) ([1]; KET:INH combination): 4
- IC50 (HEK-293T cells; HEK-293T cells, read-out: IC50): 1.57 µg/mL (≈ 3.95 µM)
- IC50 (HEK-293T cells; read-out: HEK IC50): 1.57 µg/mL (≈ 3.95 µM)
- MFC (Trichophyton rubrum): > 128 µg/mL
- MIC (Trichophyton rubrum): 8 µg/mL (≈ 20.1 µM)
- MFC (Aspergillus fumigatus [2]): 128 µg/mL (≈ 321 µM)
- MIC (Aspergillus fumigatus [2]): 32 µg/mL (≈ 80.3 µM)
- MFC (Candida glabrata): 32 µg/mL (≈ 80.3 µM)
- MIC (Candida glabrata): 32 µg/mL (≈ 80.3 µM)
- MFC [3]: 128 µg/mL (≈ 321 µM)
- MIC [3]: 16 µg/mL (≈ 40.1 µM)
- FICI (FLC:INH) (Aspergillus flavus; Fractional Inhibitory Concentration Index, fluconazole + inhibitor): 2
- FICI (ITR:INH) (Aspergillus flavus; Fractional Inhibitory Concentration Index, itraconazole + inhibitor): 1.03
- FICI (KET:INH) (Aspergillus flavus; Fractional Inhibitory Concentration Index, ketoconazole + inhibitor): 1.5
- INH MICc (FLC:INH) (Aspergillus flavus; MIC of the inhibitor in combination with fluconazole): 64
- INH MICc (ITR:INH) (Aspergillus flavus; MIC of the inhibitor in combination with itraconazole): 2
- INH MICc (KET:INH) (Aspergillus flavus; MIC of the inhibitor in combination with ketoconazole): 32
- FLC FD (FLC:INH) (Aspergillus flavus; MIC-MICc fold decrease of fluconazole, negative = increase): 1
- ITR FD (ITR:INH) (Aspergillus flavus; MIC-MICc fold decrease of itraconazole, negative = increase): 1
- KET FD (KET:INH) (Aspergillus flavus; MIC-MICc fold decrease of ketoconazole, negative = increase): 1
- INH FD (FLC:INH) (Aspergillus flavus; MIC-MICc fold decrease of the inhibitor, with fluconazole): 1
- INH FD (ITR:INH) (Aspergillus flavus; MIC-MICc fold decrease of the inhibitor, with itraconazole): 32
- INH FD (KET:INH) (Aspergillus flavus; MIC-MICc fold decrease of the inhibitor, with ketoconazole): 2
- MFC (Cryptococcus neoformans [4]): 64 µg/mL (≈ 161 µM)
- MIC (Cryptococcus neoformans [4]): 16 µg/mL (≈ 40.1 µM)
- MFC (Candida albicans): 32 µg/mL (≈ 80.3 µM)
- MIC (Candida albicans): 32 µg/mL (≈ 80.3 µM)
- FICI (Cryptococcus neoformans [5]; FLC:INH combination): 0.75
- INH MICc (Cryptococcus neoformans [5]; [7]): 8
- FLC FD (MIC-MICc fold decrease) (Cryptococcus neoformans [5]; [8]): 4
- INH FD (MIC-MICc fold decrease) (Cryptococcus neoformans [5]; FLC:INH combination): 2
- FICI (Cryptococcus neoformans [5]; ITR:INH combination): 0.75
- INH MICc (Cryptococcus neoformans [5]; [9]): 8
- ITR FD (MIC-MICc fold decrease) (Cryptococcus neoformans [5]; [10]): 4
- INH FD (MIC-MICc fold decrease) (Cryptococcus neoformans [5]; ITR:INH combination): 2
- FICI (Cryptococcus neoformans [5]; KET:INH combination): 0.75
- INH MICc (Cryptococcus neoformans [5]; [11]): 8
- KET FD (MIC-MICc fold decrease) (Cryptococcus neoformans [5]; [12]): 4
- INH FD (MIC-MICc fold decrease) (Cryptococcus neoformans [5]; KET:INH combination): 2
- FICI (Aspergillus fumigatus [6]; FLC:INH combination): 1.06
- FLC MICc (Aspergillus fumigatus [6]; FLC:INH combination, MIC of FLC in combination with the inhibitor): 8
- INH MICc (Aspergillus fumigatus [6]; [7]): 16
- FLC FD (MIC-MICc fold decrease) (Aspergillus fumigatus [6]; [8]): 16
- INH FD (MIC-MICc fold decrease) (Aspergillus fumigatus [6]; FLC:INH combination): 1
- FICI (Aspergillus fumigatus [6]; ITR:INH combination): 0.63
- ITR MICc (Aspergillus fumigatus [6]; ITR:INH combination, MIC of ITR in combination with the inhibitor): 0.063
- INH MICc (Aspergillus fumigatus [6]; [9]): 2
- ITR FD (MIC-MICc fold decrease) (Aspergillus fumigatus [6]; [10]): 2
- INH FD (MIC-MICc fold decrease) (Aspergillus fumigatus [6]; ITR:INH combination): 8
- FICI (Aspergillus fumigatus [6]; KET:INH combination): 2.25
- KET MICc (Aspergillus fumigatus [6]; KET:INH combination, MIC of KET in combination with the inhibitor): 1
